Experimental data: patent US20260226493A1, “HERBICIDE RESISTANT PLANTS” (SYNGENTA CROP PROTECTION AG, priority 2023, published 2026)

How the values were obtained:
Assay in all cases: BIO3-BIO1 mutant enzyme activity in the presence of herbicide, percentage inhibition (fluorometric DAPA assay)
Assay type in all cases: biochemical
Conditions in all cases: read-out: percentage inhibition
[1] = biological target: T1, Arabidopsis thaliana BIO3-BIO1 (BioDA) mutants (Arabidopsis thaliana, UniProt B0F481, A609K)
T1 construct: with the predicted N-terminal mitochondrial transit peptide removed; 6xHis-tag (N); thrombin cleavage site (N); made in house; host or cells: E. coli BL21 (DE3) bioA
How it was run: (§1)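 His-tagged Arabidopsis BIO3-BIO1 mutants, expressed in E. coli and purified by IMAC and SEC, were preincubated at 50 nM with herbicide for 10 min at 20 °C in EPPS pH 8.6 with pyridoxal phosphate. Reaction with 100 μM spermidine and 20 μM KAPA ran 75 min at 20 °C; DAPA was derivatised with o-phthalaldehyde and read at ex 410/em 470 nm. […].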

[2] = biological target: T2, Arabidopsis thaliana BIO3-BIO1 (BioDA) mutants (Arabidopsis thaliana, UniProt B0F481, A609N)
T2 construct: with the predicted N-terminal mitochondrial transit peptide removed; 6xHis-tag (N); thrombin cleavage site (N); made in house; host or cells: E. coli BL21 (DE3) bioA
How it was run: as §1

[3] = biological target: T3, Arabidopsis thaliana BIO3-BIO1 (BioDA) mutants (Arabidopsis thaliana, UniProt B0F481, A609R)
T3 construct: with the predicted N-terminal mitochondrial transit peptide removed; 6xHis-tag (N); thrombin cleavage site (N); made in house; host or cells: E. coli BL21 (DE3) bioA
How it was run: as §1

[4] = biological target: T4, Arabidopsis thaliana BIO3-BIO1 (BioDA) mutants (Arabidopsis thaliana, UniProt B0F481, P421L)
T4 construct: with the predicted N-terminal mitochondrial transit peptide removed; 6xHis-tag (N); thrombin cleavage site (N); made in house; host or cells: E. coli BL21 (DE3) bioA
How it was run: as §1

[5] = biological target: T5, Arabidopsis thaliana BIO3-BIO1 (BioDA) mutants (Arabidopsis thaliana, UniProt B0F481, P421W)
T5 construct: with the predicted N-terminal mitochondrial transit peptide removed; 6xHis-tag (N); thrombin cleavage site (N); made in house; host or cells: E. coli BL21 (DE3) bioA
How it was run: as §1

[6] = biological target: T6, Arabidopsis thaliana BIO3-BIO1 (BioDA) mutants (Arabidopsis thaliana, UniProt B0F481, Q517I)
T6 construct: with the predicted N-terminal mitochondrial transit peptide removed; 6xHis-tag (N); thrombin cleavage site (N); made in house; host or cells: E. coli BL21 (DE3) bioA
How it was run: as §1

[7] = biological target: T7, Arabidopsis thaliana BIO3-BIO1 (BioDA) mutants (Arabidopsis thaliana, UniProt B0F481, Q517W)
T7 construct: with the predicted N-terminal mitochondrial transit peptide removed; 6xHis-tag (N); thrombin cleavage site (N); made in house; host or cells: E. coli BL21 (DE3) bioA
How it was run: as §1

[8] = biological target: T8, Arabidopsis thaliana BIO3-BIO1 (BioDA) mutants (Arabidopsis thaliana, UniProt B0F481, S509E)
T8 construct: with the predicted N-terminal mitochondrial transit peptide removed; 6xHis-tag (N); thrombin cleavage site (N); made in house; host or cells: E. coli BL21 (DE3) bioA
How it was run: as §1

[9] = biological target: T9, Arabidopsis thaliana BIO3-BIO1 (BioDA) mutants (Arabidopsis thaliana, UniProt B0F481, S509L)
T9 construct: with the predicted N-terminal mitochondrial transit peptide removed; 6xHis-tag (N); thrombin cleavage site (N); made in house; host or cells: E. coli BL21 (DE3) bioA
How it was run: as §1

[10] = biological target: T10, Arabidopsis thaliana BIO3-BIO1 (BioDA) mutants (Arabidopsis thaliana, UniProt B0F481, S509T)
T10 construct: with the predicted N-terminal mitochondrial transit peptide removed; 6xHis-tag (N); thrombin cleavage site (N); made in house; host or cells: E. coli BL21 (DE3) bioA
How it was run: as §1

[11] = biological target: T11, Arabidopsis thaliana BIO3-BIO1 (BioDA) mutants (Arabidopsis thaliana, UniProt B0F481, Y511Q)
T11 construct: with the predicted N-terminal mitochondrial transit peptide removed; 6xHis-tag (N); thrombin cleavage site (N); made in house; host or cells: E. coli BL21 (DE3) bioA
How it was run: as §1

[12] = biological target: T12, Arabidopsis thaliana BIO3-BIO1 (BioDA) mutants (Arabidopsis thaliana, UniProt B0F481, Y511W)
T12 construct: with the predicted N-terminal mitochondrial transit peptide removed; 6xHis-tag (N); thrombin cleavage site (N); made in house; host or cells: E. coli BL21 (DE3) bioA
How it was run: as §1

T7 sequence (B0F481 23-833 Q517W): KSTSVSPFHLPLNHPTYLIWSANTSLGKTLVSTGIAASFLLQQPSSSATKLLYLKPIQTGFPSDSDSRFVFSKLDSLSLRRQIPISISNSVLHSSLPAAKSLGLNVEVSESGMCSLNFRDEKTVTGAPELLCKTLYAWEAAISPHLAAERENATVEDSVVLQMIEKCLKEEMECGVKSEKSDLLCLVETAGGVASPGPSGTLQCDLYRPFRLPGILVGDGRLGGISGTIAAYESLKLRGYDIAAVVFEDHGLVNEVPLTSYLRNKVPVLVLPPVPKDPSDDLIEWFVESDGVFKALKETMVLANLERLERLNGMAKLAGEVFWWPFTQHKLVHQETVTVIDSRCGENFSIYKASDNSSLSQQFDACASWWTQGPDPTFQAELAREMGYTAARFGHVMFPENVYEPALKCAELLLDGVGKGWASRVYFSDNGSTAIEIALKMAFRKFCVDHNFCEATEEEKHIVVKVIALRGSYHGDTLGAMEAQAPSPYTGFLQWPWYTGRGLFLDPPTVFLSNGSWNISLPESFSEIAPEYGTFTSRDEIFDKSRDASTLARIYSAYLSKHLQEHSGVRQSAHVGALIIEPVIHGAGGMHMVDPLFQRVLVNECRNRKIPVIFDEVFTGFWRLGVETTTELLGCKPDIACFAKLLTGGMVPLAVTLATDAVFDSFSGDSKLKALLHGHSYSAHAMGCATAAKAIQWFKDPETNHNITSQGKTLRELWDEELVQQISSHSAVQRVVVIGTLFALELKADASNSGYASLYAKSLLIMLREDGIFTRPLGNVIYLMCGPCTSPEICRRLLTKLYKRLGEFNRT
T10 sequence (B0F481 23-833 S509T): as the sequence (B0F481 23-833 Q517W) above, with S487T, W495Q counted along it
T6 sequence (B0F481 23-833 Q517I): as the sequence (B0F481 23-833 Q517W) above, with W495I counted along it
T5 sequence (B0F481 23-833 P421W): as the sequence (B0F481 23-833 Q517W) above, with P399W, W495Q counted along it
T1 sequence (B0F481 23-833 A609K): as the sequence (B0F481 23-833 Q517W) above, with W495Q, A587K counted along it
T3 sequence (B0F481 23-833 A609R): as the sequence (B0F481 23-833 Q517W) above, with W495Q, A587R counted along it
T12 sequence (B0F481 23-833 Y511W): as the sequence (B0F481 23-833 Q517W) above, with Y489W, W495Q counted along it
T8 sequence (B0F481 23-833 S509E): as the sequence (B0F481 23-833 Q517W) above, with S487E, W495Q counted along it
T2 sequence (B0F481 23-833 A609N): as the sequence (B0F481 23-833 Q517W) above, with W495Q, A587N counted along it
T4 sequence (B0F481 23-833 P421L): as the sequence (B0F481 23-833 Q517W) above, with P399L, W495Q counted along it
T9 sequence (B0F481 23-833 S509L): as the sequence (B0F481 23-833 Q517W) above, with S487L, W495Q counted along it
T11 sequence (B0F481 23-833 Y511Q): as the sequence (B0F481 23-833 Q517W) above, with Y489Q, W495Q counted along it

Row | SMILES | inhibition at 1 µM [1] | inhibition at 1 µM [2] | inhibition at 1 µM [3] | inhibition at 1 µM [4] | inhibition at 1 µM [5] | inhibition at 1 µM [6] | inhibition at 1 µM [7] | inhibition at 1 µM [8] | inhibition at 1 µM [9] | inhibition at 1 µM [10] | inhibition at 1 µM [11] | inhibition at 1 µM [12] | inhibition at 0.2 µM [1] | inhibition at 5 µM [1] | inhibition at 0.2 µM [2] | inhibition at 5 µM [2] | inhibition at 0.2 µM [3] | inhibition at 5 µM [3] | inhibition at 0.2 µM [4] | inhibition at 5 µM [4] | further results
1 | CCn1c(Cn2ccc(C(F)(F)F)n2)cc(=O)c(C(=O)O)c1-c1ccc(Cl)c(Cl)c1 [Compound L, 2-(3,4-dichlorophenyl)-1-ethyl-4-oxo-6-[[3-(trifluoromethyl)pyrazol-1-yl]methyl]pyridine-3-carboxylic acid] | – | – | – | – | – | – | – | – | – | – | – | – | – | – | – | – | – | – | – | – | inhibition at 0.01 µM [1]: 36%; inhibition at 0.075 µM [1]: 52%; inhibition at 0.5 µM [1]: 64%; inhibition at 0.01 µM [2]: 83%; inhibition at 0.075 µM [2]: 83%; inhibition at 0.5 µM [2]: 85%; inhibition at 0.01 µM [3]: 0%; inhibition at 0.075 µM [3]: 51%; inhibition at 0.5 µM [3]: 65%; inhibition at 0.01 µM [4]: 0%; inhibition at 0.075 µM [4]: 10%; inhibition at 0.5 µM [4]: 45%; inhibition at 0.01 µM [5]: 0%; inhibition at 0.075 µM [5]: 8%; inhibition at 0.5 µM [5]: 27%
2 | CCOC(=O)c1nn(-c2ccc3c(c2)OC(F)(F)C(F)(F)O3)c2cccc(C(C)=O)c2c1=O [Compound A, ethyl 5-acetyl-4-oxo-1-(2,2,3,3-tetrafluoro-1,4-benzodioxin-6-yl)cinnoline-3-carboxylate] | 18% | 78% | 54% | 61% | 21% | 28% | 9% | 6% | 6% | 77% | 21% | 57% | – | – | – | – | – | – | – | – | –
3 | CCn1c(-c2ccc(Cl)c(Cl)c2)c(C(=O)O)c(=O)c2cc(F)ccc21 [Compound M, 2-(3,4-dichlorophenyl)-1-ethyl-6-fluoro-4-oxo-quinoline-3-carboxylic acid] | 78% | 49% | 53% | 6% | 0% | 44% | 51% | 73% | 68% | 69% | 87% | 67% | 0% | 92% | 44% | 62% | 52% | 88% | 0% | 31% | inhibition at 0.2 µM [5]: 0%; inhibition at 5 µM [5]: 18%; inhibition at 0.2 µM [6]: 19%; inhibition at 5 µM [6]: 72%; inhibition at 0.2 µM [7]: 26%; inhibition at 5 µM [7]: 79%; inhibition at 0.2 µM [8]: 40%; inhibition at 5 µM [8]: 93%; inhibition at 0.2 µM [9]: 19%; inhibition at 5 µM [9]: 94%; inhibition at 0.2 µM [10]: 9%; inhibition at 5 µM [10]: 95%; inhibition at 0.2 µM [11]: 54%; inhibition at 5 µM [11]: 95%; inhibition at 0.2 µM [12]: 25%; inhibition at 5 µM [12]: 90%
4 | CCn1c(C)c(-c2ccc(F)cc2F)c(=O)c(C(=O)O)c1-c1ccc(Cl)c(Cl)c1 [Compound C, 2-(3,4-dichlorophenyl)-5-(2,4-difluorophenyl)-1-ethyl-6-methyl-4-oxo-pyridine-3-carboxylic acid] | 80% | 36% | 68% | 35% | 15% | 58% | 72% | 87% | 85% | 50% | 97% | 85% | 65% | 87% | 45% | 53% | 63% | 71% | 4% | 67% | inhibition at 0.2 µM [5]: 0%; inhibition at 5 µM [5]: 37%; inhibition at 0.2 µM [6]: 25%; inhibition at 5 µM [6]: 82%; inhibition at 0.2 µM [7]: 29%; inhibition at 5 µM [7]: 90%; inhibition at 0.2 µM [8]: 57%; inhibition at 5 µM [8]: 97%; inhibition at 0.2 µM [9]: 24%; inhibition at 5 µM [9]: 99%; inhibition at 0.2 µM [10]: 5%; inhibition at 5 µM [10]: 89%; inhibition at 0.2 µM [11]: 78%; inhibition at 5 µM [11]: 98%; inhibition at 0.2 µM [12]: 41%; inhibition at 5 µM [12]: 97%
